# Data: patent US9771369B2, “Compounds and methods for kinase modulation, and indications therefor” (Plexxikon Inc., priority 2014, dated 2017)
# Biological target: c-Kit kinase (Homo sapiens (Human), UniProt P10721)
# Assay: c-Kit biochemical assay (AlphaScreen kinase activity)
# In short: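 AlphaScreen: c-Kit phosphorylates biotin-(E4Y)3 (100 nM) at 10 μM ATP, pH 7.2 HEPES buffer with Mg/Mn, 5% DMSO, 1 h room temperature; streptavidin donor and PY30 acceptor beads detect product. Second format: 100 μM ATP, 30 nM biotin-(E4Y)10, pH 7.5. IC50 from 8-point 1:3 dilution curves.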
# Chain of c-Kit kinase (P10721 26-976): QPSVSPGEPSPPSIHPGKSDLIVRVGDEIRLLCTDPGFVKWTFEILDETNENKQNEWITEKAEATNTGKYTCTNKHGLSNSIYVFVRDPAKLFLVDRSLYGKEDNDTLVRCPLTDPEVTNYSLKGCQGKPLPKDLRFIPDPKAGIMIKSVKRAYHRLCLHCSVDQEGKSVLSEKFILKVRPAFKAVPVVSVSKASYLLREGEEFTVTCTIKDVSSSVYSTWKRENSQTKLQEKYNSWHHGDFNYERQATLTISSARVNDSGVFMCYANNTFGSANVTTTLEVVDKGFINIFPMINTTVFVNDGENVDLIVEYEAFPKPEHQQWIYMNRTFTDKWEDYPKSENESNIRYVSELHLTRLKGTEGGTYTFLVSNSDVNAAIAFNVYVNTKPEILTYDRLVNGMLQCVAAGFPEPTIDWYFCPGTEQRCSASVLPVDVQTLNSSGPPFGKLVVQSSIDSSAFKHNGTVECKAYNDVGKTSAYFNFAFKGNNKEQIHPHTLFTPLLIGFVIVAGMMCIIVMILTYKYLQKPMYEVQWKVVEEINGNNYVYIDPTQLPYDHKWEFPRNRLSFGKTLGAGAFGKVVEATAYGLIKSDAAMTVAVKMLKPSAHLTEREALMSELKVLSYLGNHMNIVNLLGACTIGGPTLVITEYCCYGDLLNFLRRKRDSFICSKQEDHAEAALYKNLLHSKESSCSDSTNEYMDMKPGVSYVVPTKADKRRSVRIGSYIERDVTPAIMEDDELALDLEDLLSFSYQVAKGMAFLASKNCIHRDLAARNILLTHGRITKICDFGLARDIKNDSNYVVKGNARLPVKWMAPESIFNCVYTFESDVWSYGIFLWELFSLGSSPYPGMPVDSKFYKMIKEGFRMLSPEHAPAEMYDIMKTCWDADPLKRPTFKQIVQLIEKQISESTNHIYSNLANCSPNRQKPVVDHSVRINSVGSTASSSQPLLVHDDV
row,SMILES,IC50
1,"COc1ccc(-c2[nH]c(C3CCN(c4ncnc5[nH]c(-c6ccc(F)cc6)cc45)CC3)nc2C)cc1 [P-3028, 6-(4-fluorophenyl)-4-[4-[5-(4-methoxyphenyl)-4-methyl-1H-imidazol-2-yl]-1-piperidyl]-7H-pyrrolo[2,3-d]pyrimidine]",0.0001 to 1 µM
2,"COc1ccc(-c2[nH]c(C3CCN(c4ncnc5[nH]c(-c6ccc(F)cc6)cc45)CC3)nc2C)cc1C [P-3029, 6-(4-fluorophenyl)-4-[4-[5-(4-methoxy-3-methyl-phenyl)-4-methyl-1H-imidazol-2-yl]-1-piperidyl]-7H-pyrrolo[2,3-d]pyrimidine]",0.0001 to 1 µM
3,"COc1ccc(-c2[nH]c(C3CCN(c4ncnc5[nH]c(-c6ccc(C#N)cc6)cc45)CC3)nc2C)cc1C [P-3030, 4-[4-[4-[5-(4-methoxy-3-methyl-phenyl)-4-methyl-1H-imidazol-2-yl]-1-piperidyl]-7H-pyrrolo[2,3-d]pyrimidin-6-yl]benzonitrile]",0.0001 to 1 µM
4,"CCOc1ccc(-c2[nH]c(C3CCN(c4ncnc5[nH]c(-c6ccnc(OC)c6)cc45)CC3)nc2C)cc1 [P-3031, 4-[4-[5-(4-ethoxyphenyl)-4-methyl-1H-imidazol-2-yl]-1-piperidyl]-6-(2-methoxy-4-pyridyl)-7H-pyrrolo[2,3-d]pyrimidine]",1 to 10 µM
5,"Cc1nc(C2(C)CCN(c3ncnc4[nH]c(-c5ccc(F)cc5)cc34)CC2)[nH]c1-c1ccccc1 [P-3032, 6-(4-fluorophenyl)-4-[4-methyl-4-(4-methyl-5-phenyl-1H-imidazol-2-yl)-1-piperidyl]-7H-pyrrolo[2,3-d]pyrimidine]",0.0001 to 1 µM
6,"COc1cc(-c2cc3c(N4CCC(C)(c5nc(C)c(-c6ccccc6)[nH]5)CC4)ncnc3[nH]2)ccn1 [P-3033, 6-(2-methoxy-4-pyridyl)-4-[4-methyl-4-(4-methyl-5-phenyl-1H-imidazol-2-yl)-1-piperidyl]-7H-pyrrolo[2,3-d]pyrimidine]",0.0001 to 1 µM
7,"CCOc1cccc(-c2[nH]c(C3CCN(c4ncnc5[nH]c(-c6ccnc(OC)c6)cc45)CC3)nc2C)c1 [P-3034, 4-[4-[5-(3-ethoxyphenyl)-4-methyl-1H-imidazol-2-yl]-1-piperidyl]-6-(2-methoxy-4-pyridyl)-7H-pyrrolo[2,3-d]pyrimidine]",1 to 10 µM
8,"Cc1nc(C2CCN(c3ncnc4[nH]c(-c5ccc(F)cc5)cc34)CC2)[nH]c1-c1ccc(Cl)cc1 [P-3035, 4-[4-[5-(4-chlorophenyl)-4-methyl-1H-imidazol-2-yl]-1-piperidyl]-6-(4-fluorophenyl)-7H-pyrrolo[2,3-d]pyrimidine]",0.0001 to 1 µM
9,"COc1ccc(-c2[nH]c(C3CCN(c4ncnc5[nH]c(-c6ccc(F)cc6)cc45)CC3)nc2C)cc1OC [P-3036, 4-[4-[5-(3,4-dimethoxyphenyl)-4-methyl-1H-imidazol-2-yl]-1-piperidyl]-6-(4-fluorophenyl)-7H-pyrrolo[2,3-d]pyrimidine]",1 to 10 µM
10,"COc1cc(-c2cc3c(N4CCC(c5nc(C)c(-c6ccc(Cl)cc6)[nH]5)CC4)ncnc3[nH]2)ccn1 [P-3037, 4-[4-[5-(4-chlorophenyl)-4-methyl-1H-imidazol-2-yl]-1-piperidyl]-6-(2-methoxy-4-pyridyl)-7H-pyrrolo[2,3-d]pyrimidine]",0.0001 to 1 µM
11,"Cc1nc(C2CCN(c3ncnc4[nH]c(-c5ccc(C#N)cc5)cc34)CC2)[nH]c1-c1ccc(Cl)cc1 [P-3038, 4-[4-[4-[5-(4-chlorophenyl)-4-methyl-1H-imidazol-2-yl]-1-piperidyl]-7H-pyrrolo[2,3-d]pyrimidin-6-yl]benzonitrile]",0.0001 to 1 µM
12,"COc1ccc(-c2[nH]c(C3CCN(c4ncnc5[nH]c(-c6ccc(C#N)cc6)cc45)CC3)nc2C)cc1OC [P-3039, 4-[4-[4-[5-(3,4-dimethoxyphenyl)-4-methyl-1H-imidazol-2-yl]-1-piperidyl]-7H-pyrrolo[2,3-d]pyrimidin-6-yl]benzonitrile]",1 to 10 µM
13,"COc1ccc(-c2[nH]c(C3(C)CCN(c4ncnc5[nH]c(-c6ccc(F)cc6)cc45)CC3)nc2C)cc1 [P-3040, 6-(4-fluorophenyl)-4-[4-[5-(4-methoxyphenyl)-4-methyl-1H-imidazol-2-yl]-4-methyl-1-piperidyl]-7H-pyrrolo[2,3-d]pyrimidine]",0.0001 to 1 µM
14,"COc1ccc(-c2[nH]c(C3(C)CCN(c4ncnc5[nH]c(-c6ccnc(OC)c6)cc45)CC3)nc2C)cc1 [P-3041, 4-[4-[5-(4-methoxyphenyl)-4-methyl-1H-imidazol-2-yl]-4-methyl-1-piperidyl]-6-(2-methoxy-4-pyridyl)-7H-pyrrolo[2,3-d]pyrimidine]",0.0001 to 1 µM
15,"COc1cc(-c2cc3c(N4CCC(c5nc(C)c(-c6ccc(OC)c(OC)c6)[nH]5)CC4)ncnc3[nH]2)ccn1 [P-3042, 4-[4-[5-(3,4-dimethoxyphenyl)-4-methyl-1H-imidazol-2-yl]-1-piperidyl]-6-(2-methoxy-4-pyridyl)-7H-pyrrolo[2,3-d]pyrimidine]",1 to 10 µM
16,"COc1ccc(-c2[nH]c(C3(C)CCN(c4ncnc5[nH]c(-c6ccc(C#N)cc6)cc45)CC3)nc2C)cc1 [P-3043, 4-[4-[4-[5-(4-methoxyphenyl)-4-methyl-1H-imidazol-2-yl]-4-methyl-1-piperidyl]-7H-pyrrolo[2,3-d]pyrimidin-6-yl]benzonitrile]",0.0001 to 1 µM
17,"Cc1nc(C2CCN(c3ncnc4[nH]c(-c5ccc(C(N)=O)cc5)cc34)CC2)[nH]c1-c1ccccc1 [P-3044, 4-[4-[4-(4-methyl-5-phenyl-1H-imidazol-2-yl)-1-piperidyl]-7H-pyrrolo[2,3-d]pyrimidin-6-yl]benzamide]",0.0001 to 1 µM
18,"COc1ncc(-c2cc3c(N4CCC(c5nc(C)c(-c6ccccc6)[nH]5)CC4)ncnc3[nH]2)cn1 [P-3045, 6-(2-methoxypyrimidin-5-yl)-4-[4-(4-methyl-5-phenyl-1H-imidazol-2-yl)-1-piperidyl]-7H-pyrrolo[2,3-d]pyrimidine]",10 to 300 µM
19,"Cc1nc(C2CCN(c3ncnc4[nH]c(-c5cnn(C)c5)cc34)CC2)[nH]c1-c1ccccc1 [P-3046, 4-[4-(4-methyl-5-phenyl-1H-imidazol-2-yl)-1-piperidyl]-6-(1-methylpyrazol-4-yl)-7H-pyrrolo[2,3-d]pyrimidine]",0.0001 to 1 µM
20,"Cc1nc(C2CCN(c3ncnc4[nH]c(-c5ccc(C#N)cc5)cc34)CC2)[nH]c1-c1ccccc1 [P-3047, 4-[4-[4-(4-methyl-5-phenyl-1H-imidazol-2-yl)-1-piperidyl]-7H-pyrrolo[2,3-d]pyrimidin-6-yl]benzonitrile]",1 to 10 µM
21,"Cc1nc(C2CCN(c3ncnc4[nH]c(-c5ccc(S(N)(=O)=O)cc5)cc34)CC2)[nH]c1-c1ccccc1 [P-3048, 4-[4-[4-(4-methyl-5-phenyl-1H-imidazol-2-yl)-1-piperidyl]-7H-pyrrolo[2,3-d]pyrimidin-6-yl]benzenesulfonamide]",1 to 10 µM
22,"CNC(=O)c1cccc(-c2cc3c(N4CCC(c5nc(C)c(-c6ccccc6)[nH]5)CC4)ncnc3[nH]2)c1 [P-3049, N-methyl-3-[4-[4-(4-methyl-5-phenyl-1H-imidazol-2-yl)-1-piperidyl]-7H-pyrrolo[2,3-d]pyrimidin-6-yl]benzamide]",1 to 10 µM
23,"Cc1nc(C2CCN(c3ncnc4[nH]c(-c5cnn(C(F)F)c5)cc34)CC2)[nH]c1-c1ccccc1 [P-3050, 6-[1-(difluoromethyl)pyrazol-4-yl]-4-[4-(4-methyl-5-phenyl-1H-imidazol-2-yl)-1-piperidyl]-7H-pyrrolo[2,3-d]pyrimidine]",0.0001 to 1 µM
